Measurements published in paper PMC11521726, “Surface plasmon resonance, molecular docking, and molecular dynamics simulation studies of lysozyme interaction with tannic acid” (Food Science & Nutrition, 2024).

Target: T1, Chicken egg white lysozyme (CEWLZM) (Gallus gallus, UniProt P00698)
T1 construct: gene LYZ
Experiment: SPR kinetics, CEWLZM amine-coupled on MUA gold chip, TA […], PBS pH […]°C
Type: binding

T1 sequence (P00698 19-147): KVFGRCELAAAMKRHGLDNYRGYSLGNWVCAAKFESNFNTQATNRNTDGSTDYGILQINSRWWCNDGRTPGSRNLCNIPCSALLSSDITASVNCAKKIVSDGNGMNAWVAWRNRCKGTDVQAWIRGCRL

`O=C(OC[C@H]1O[C@@H](OC(=O)c2cc(O)c(O)c(OC(=O)c3cc(O)c(O)c(O)c3)c2)[C@H](OC(=O)c2cc(O)c(O)c(OC(=O)c3cc(O)c(O)c(O)c3)c2)[C@@H](OC(=O)c2cc(O)c(O)c(OC(=O)c3cc(O)c(O)c(O)c3)c2)[C@@H]1OC(=O)c1cc(O)c(O)c(OC(=O)c2cc(O)c(O)c(O)c2)c1)c1cc(O)c(O)c(OC(=O)c2cc(O)c(O)c(O)c2)c1` [TA, tannic acid] showed a Kd of 41.7 µM.
